Measured values published in US20060122276A1, “Agent for inhibiting membrane virus reproduction, method for the production thereof, pharmaceutical composition and method for inhibiting viral infections” (priority 2003, published 2006).

Tests used:
[1] = test system: herpes simplex virus (HSV-1); test: Antiviral activity with respect to HSV-1 in VERO cells; assay type: cell-based, type 1, strain L2; details: 100 TCD50, 48 hours after the infection
Description: (§1) Herpes simplex virus, type 1, strain L2, replicated in VERO cells was used in the investigation.
(§2) […] acyclovir was used as positive control

[2] = test system: herpes simplex virus (HSV-1); test: Antiviral activity with respect to HSV-1 in human embryo fibroblasts (M-21); assay type: cell-based, type 1, strain L2; details: 100 TCD50, 48 hours after the infection
Description: as §1, §2

[3] = test system: African green monkey kidney cells (VERO); test: Cytotoxic action on non-infected VERO cells; assay type: cell-based; details: 500 and 1000 μg/ml; 3-days follow-up
hepatitis C virus [4] = test: Viability of hepatitis C virus-infected SPEV cell cultures; assay type: cell-based, hepatitis C virus genotype 1b; details: 7th day after infecting (control 0)
Procedure: (§3) In our work we used cytopathogenic strain of hepatitis C virus belonging to geno-type 1b. The strain was isolated from the blood serum of a patient suffering from chronic viral hepatitis C, identified as hepatic C virus. Infective doses of HSV equal to 10 TCD of 50/20 μl were used in the investigation.
Cultures of reinoculated porcine embryo kidney cells (SPEV), highly sensitive to the pathogenic action of HSV, obtained from “Narva” Company (Russia) were employed. These cultures were used in the form of a one day monolayer of cells, grown in 24-cell plastic plates.
(§4) For studying the antiviral activity of the preparation, the preparation was introduced in various concentrations into the SPEV cell cultures at the moment of infection and in 24 hours after the infection with hepatitis C virus on the cell in 24-cell plastic culture plates.
The viability of the SPEV cell cultures infected and non-infected with HSV was studied on the 7th day after the infection.

hepatitis C virus [5] = test: Residual infectious activity (titers) of hepatitis C virus in SPEV culture medium; assay type: cell-based, hepatitis C virus genotype 1b; details: for Lowering of virus titers in SPEV cell cultures: administered simultaneously with the virus
Procedure: as §3
For titrating the residual infectiousness of the virus, the same line of porcine embryo kidney cells (SPEV) was used.
as §4
For determining the residual infectious activity of HSV, samples of the culture fluid were taken from the plate cells three days after the treatment of the infected cells with the preparation and titrated on the SPEV cell cultures. The infectious activity of HSV was taken into account from the results of titration on the 6-7th day after the infection, when maximum cytopathogenic action of the virus developed, applying the Rid and Mench formula for calculating the titer of the Hepatitis C virus.

HIV-1 = test: Treatment of HIV-1-infected patients, blood sample analyses
Procedure: The treatment was carried out in accordance with the following schedule: 20 mg rectal suppositories every three days, one suppository a day during 3 months.

[6] = 1.0, 10 and 50 μg/ml, introduced 30 and 60 minutes after the infection

## sodium salt of fullerene-polyamino-caproic acid
[1]; 10 μg/ml
  Protection of VERO cells against the cytodestructive action of HSV-1: full protection
[1]; [6]
  Protection of VERO cells from the cytodestructive action of HSV-1: full protection
[2]; 10 μg/ml
  Protection of M-21 cells against the cytodestructive action of HSV-1: full protection
[2]; [6]
  Protection of M-21 cells from the cytodestructive action of HSV-1: full protection
[3]
  Cytodestructive action on non-infected VERO cells: has not revealed cytodestructive action
Hepatitis C virus [4]; 6.25 μg/ml, introduced 24 hours after infecting
  Percentage of survived SPEV cells: 0%
Hepatitis C virus [4]; 6.25 μg/ml, introduced at the moment of infecting
  Percentage of survived SPEV cells: 0%
Hepatitis C virus [4]; 12.5 μg/ml, introduced 24 hours after infecting
  Percentage of survived SPEV cells: 0%
Hepatitis C virus [4]; 12.5 μg/ml, introduced at the moment of infecting
  Percentage of survived SPEV cells: 0%
Hepatitis C virus [4]; 25 μg/ml, introduced 24 hours after infecting
  Percentage of survived SPEV cells: 0%
Hepatitis C virus [4]; 25 μg/ml, introduced at the moment of infecting
  Percentage of survived SPEV cells: 0%
Hepatitis C virus [4]; 50 μg/ml, introduced 24 hours after infecting
  Percentage of survived SPEV cells: 50%
Hepatitis C virus [4]; 50 μg/ml, introduced at the moment of infecting
  Percentage of survived SPEV cells: 75%
Hepatitis C virus [4]; 100 μg/ml, introduced 24 hours after infecting
  Percentage of survived SPEV cells: 100%
Hepatitis C virus [4]; 100 μg/ml, introduced at the moment of infecting
  Percentage of survived SPEV cells: 100%
Hepatitis C virus [5]; 6.25 μg/ml, introduced 24 hours after infecting (control 9.1)
  Titers of hepatitis C virus in medium samples taken on the 3rd day after infecting: 9.0 1 g TCD 50/20 μl
Hepatitis C virus [5]; 6.25 μg/ml, introduced at the moment of infecting (control 9.5)
  Titers of hepatitis C virus in medium samples taken on the 3rd day after infecting: 9.7 1 g TCD 50/20 μl
Hepatitis C virus [5]; 12.5 μg/ml, introduced 24 hours after infecting (control 9.1)
  Titers of hepatitis C virus in medium samples taken on the 3rd day after infecting: 9.9 1 g TCD 50/20 μl
Hepatitis C virus [5]; 12.5 μg/ml, introduced at the moment of infecting (control 9.5)
  Titers of hepatitis C virus in medium samples taken on the 3rd day after infecting: 9.5 1 g TCD 50/20 μl
Hepatitis C virus [5]; 25 μg/ml, introduced 24 hours after infecting (control 9.1)
  Titers of hepatitis C virus in medium samples taken on the 3rd day after infecting: 9.5 1 g TCD 50/20 μl
Hepatitis C virus [5]; 25 μg/ml, introduced at the moment of infecting (control 9.5)
  Titers of hepatitis C virus in medium samples taken on the 3rd day after infecting: 9.3 1 g TCD 50/20 μl
Hepatitis C virus [5]; 50 μg/ml, listed as preparation
  Lowering of virus titers in SPEV cell cultures: 3.0 lg
Hepatitis C virus [5]; 50 μg/ml, introduced 24 hours after infecting (control 9.1)
  Titers of hepatitis C virus in medium samples taken on the 3rd day after infecting: 8.5 1 g TCD 50/20 μl
Hepatitis C virus [5]; 50 μg/ml, introduced at the moment of infecting (control 9.5)
  Titers of hepatitis C virus in medium samples taken on the 3rd day after infecting: 6.2 1 g TCD 50/20 μl
Hepatitis C virus [5]; 100 μg/ml
  Lowering of virus titers in SPEV cell cultures: 7.4 lg
Hepatitis C virus [5]; 100 μg/ml, introduced 24 hours after infecting (control 9.1)
  Titers of hepatitis C virus in medium samples taken on the 3rd day after infecting: 3.0 1 g TCD 50/20 μl
Hepatitis C virus [5]; 100 μg/ml, introduced at the moment of infecting (control 9.5)
  Titers of hepatitis C virus in medium samples taken on the 3rd day after infecting: 2.1 1 g TCD 50/20 μl
HIV-1; HIV-1-infected patients, 20 mg rectal suppositories, 3 months
  Condition of the patients: improvement
HIV-1; Patient A, after 1 month, 20 mg rectal suppository every day, before treatment 8
  Virus titer (value reciprocal to the dilution of sample that gives 50% CPE or syncytia): 2
HIV-1; Patient A, after 1 month, 20 mg rectal suppository every day, before treatment 59
  T4-lymphocytes, mm^3: 355 mm^3
HIV-1; Patient A, after 1 month, 20 mg rectal suppository every day, before treatment 63
  T8-lymphocytes, mm^3: 455 mm^3
HIV-1; Patient A, after 1 month, 20 mg rectal suppository every day, before treatment 1,200,000
  PCR, RNA, copies/ml: 72,000 copies/ml
HIV-1; Patient A, after 2 months, 20 mg rectal suppository every day, before treatment 8
  Virus titer (value reciprocal to the dilution of sample that gives 50% CPE or syncytia): 2
HIV-1; Patient A, after 2 months, 20 mg rectal suppository every day, before treatment 59
  T4-lymphocytes, mm^3: 234 mm^3
HIV-1; Patient A, after 2 months, 20 mg rectal suppository every day, before treatment 63
  T8-lymphocytes, mm^3: 219 mm^3
HIV-1; Patient A, after 2 months, 20 mg rectal suppository every day, before treatment 1,200,000
  PCR, RNA, copies/ml: 43,000 copies/ml
HIV-1; Patient A, after 3 months, 20 mg rectal suppository every day, before treatment 8
  Virus titer (value reciprocal to the dilution of sample that gives 50% CPE or syncytia): 0
HIV-1; Patient A, after 3 months, 20 mg rectal suppository every day, before treatment 59
  T4-lymphocytes, mm^3: 381 mm^3
HIV-1; Patient A, after 3 months, 20 mg rectal suppository every day, before treatment 63
  T8-lymphocytes, mm^3: 409 mm^3
HIV-1; Patient A, after 3 months, 20 mg rectal suppository every day, before treatment 1,200,000
  PCR, RNA, copies/ml: 44,000 copies/ml
HIV-1; Patient B, after 1 month, 20 mg rectal suppositories every three days, before treatment 4
  Virus titer (value reciprocal to the dilution of sample that gives 50% CPE or syncytia): 128
HIV-1; Patient B, after 1 month, 20 mg rectal suppositories every three days, before treatment 163
  T4-lymphocytes, mm^3: 581 mm^3
HIV-1; Patient B, after 1 month, 20 mg rectal suppositories every three days, before treatment 257
  T8-lymphocytes, mm^3: 464 mm^3
HIV-1; Patient B, after 1 month, 20 mg rectal suppositories every three days, before treatment 140,000
  PCR, RNA, copies/ml: 180,000 copies/ml
HIV-1; Patient B, after 2 months, 20 mg rectal suppositories every three days, before treatment 4
  Virus titer (value reciprocal to the dilution of sample that gives 50% CPE or syncytia): 2
HIV-1; Patient B, after 2 months, 20 mg rectal suppositories every three days, before treatment 163
  T4-lymphocytes, mm^3: 329 mm^3
HIV-1; Patient B, after 2 months, 20 mg rectal suppositories every three days, before treatment 257
  T8-lymphocytes, mm^3: 329 mm^3
HIV-1; Patient B, after 2 months, 20 mg rectal suppositories every three days, before treatment 140,000
  PCR, RNA, copies/ml: 3,500 copies/ml
HIV-1; Patient B, after 3 months, 20 mg rectal suppositories every three days, before treatment 4
  Virus titer (value reciprocal to the dilution of sample that gives 50% CPE or syncytia): 1
HIV-1; Patient B, after 3 months, 20 mg rectal suppositories every three days, before treatment 163
  T4-lymphocytes, mm^3: 325 mm^3
HIV-1; Patient B, after 3 months, 20 mg rectal suppositories every three days, before treatment 257
  T8-lymphocytes, mm^3: 401 mm^3
HIV-1; Patient B, after 3 months, 20 mg rectal suppositories every three days, before treatment 140,000
  PCR, RNA, copies/ml: 2,000 copies/ml
